The subject of one test is CCRF-CEM leukemia cells. Kind of test: CCRF-CEM ASNase cell proliferation assay, phenotypic assay for cellular inhibition of GCN2. The test is classed as cell-based. Particulars: Homo sapiens; ASNase treated CCRF-CEM cells, 1 mU/mL ASNase, 72 h. The method, then: CCRF-CEM leukemia cells (catalog #CCL-116) were obtained from the American Type Culture Collect (ATTC, Manassas, VA). Cells were grown in RPMI-1640 medium supplemented with 10% heat-inactivated fetal bovine serum (Invitrogen, Carlsbad, CA) and 1% Penicillin/Streptomycin/L-Glutamine at 37° C., 5% CO2, and 95% humidity. Cells were expanded until reaching one million cells per mL at which time they are subcultured or harvested for assay use. Ten thousand cells per well in 200 μL RPMI-1640 supplemented with 10% heat-inactivated fetal bovine serum and 1% Penicillin/Streptomycin were dispensed into a 96-well black clear bottom plate. A serial dilution of test compound and 1 mU/mL ASNase was added in triplicate and plates were incubated for 72 h at 37° C., 5% CO2, and 95% humidity. At the end of the incubation, 40 μL of a […] solution of resazurin (Sigma, St. Louis, MO) in PBS was added to each well of the plate and plates were incubated for an additional 6 h at 37° C., 5% CO2, and 95% humidity. Plates were read on a Synergy2 or equivalent reader (Biotek, Winooski VT) using an excitation of 540 nm and an emission of 600 nm. Data was analyzed using GraphPad Prism software (GraphPad, San Diego, CA) to calculate IC50 values.

Test [1] deals with ATF4 in HCT116 colorectal cancer cells. Kind of test: HCT116 amino acid starved (-AA) ATF4 assay (Western blot). The settings on record: Homo sapiens, HCT-116, 4 h. The test is classed as cell-based. How it is done:
(§1) HCT116 colorectal cancer cells (catalog #CCL-247) were obtained from the American Type Culture Collect (ATTC, Manassas, VA). Briefly, cells were grown in RPMI 1640 supplemented with 10% heat inactivated fetal bovine serum (Invitrogen, Carlsbad, CA) and 1% Penicillin/Streptomycin/L-Glutamine at 37° C., 5% CO2, and 95% humidity. Cells were expanded until reaching 70-95% confluency at which point they were subcultured or harvested for assay use. Cells were seeded in 12-well culture plate at five hundred thousand cells per well in 1 mL complete growth medium and incubated overnight at 37° C., 5% CO2, and 95% humidity. The next day each well was replaced with 1 mL Earle's Balanced Salt Solution (EBSS, Invitrogen, Carlsbad, CA) supplemented with 10% Dialyzed Fetal Bovine Serum, 5.5 mM Glucose, 1% Penicillin/Streptomycin and 1% Vitamin solution (thermo #11120052). A serial dilution of test compound was dispensed into well. Plates were incubated for 4 h at 37° C., 5% CO2, and 95% humidity. At the end of the incubation, cells were washed with PBS supplemented with 1× Halt protease inhibitor, 1× Halt phosphatase inhibitor, 1× Sigma phosphatase inhibitor cocktail 2 and 1×EDTA and then lysed with M-PER Mammalian Protein Extraction Reagent supplemented with 3× of the inhibitor mix as described above. Cell lysates were sonicated with water bath sonicator (Qsonica, Newtown, CT) and supernatants were boiled with SDS buffer and reducing agent. Western blot was performed on each lysate to quantify phospho-GCN2 (Thr899), total GCN2, ATF4 and beta-Actin. Membranes were imaged with LI-COR Odyssey CLx Imaging System (LI-COR, Lincoln, NE). Data were analyzed using GraphPad Prism software (GraphPad, San Diego, CA) to calculate IC50 values.
Background: Immunoblotting shows a protein as a band on a membrane.

Test [2] has as its system phospho-GCN2 (Thr899) in HCT116 colorectal cancer cells. The test is described as follows: HCT116 amino acid starved (-AA) phospho-GCN2 assay (Western blot). The test is classed as cell-based. Particulars: Homo sapiens, HCT-116, 4 h, read-out: HCT116-AA pGCN2 Western Blot. How it is done:
as §1

The target of another test is PERK kinase (Homo sapiens (Human), UniProt Q9NZJ5). Kind of test: Biochemical assay for PERK (coupled pyruvate kinase/lactate dehydrogenase assay). Particulars: 1 mM ATP, rate from 2-3 h time frame. Put shortly:
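Coupled pyruvate kinase/lactate dehydrogenase readout of ATP hydrolysis via NADH oxidation (A340), 10 nM PERK, 0.25 mg/mL myelin basic protein, 1 mM ATP, pH 7.5 Tris/MgCl2 buffer, 1% DMSO. Absorbance followed 6 h at 30° C; rate from the 2-3 h window, normalised to no-compound and known-inhibitor controls, IC50 fitted.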

The target in another test is GCN2 kinase (Homo sapiens (Human), UniProt Q9P2K8). Kind of test: Biochemical assay for GCN2 (TR-FRET kinase activity assay). Particulars: 1 mM ATP, 3-hour incubation. A digest of the protocol: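 TR-FRET assay with 2 nM GCN2, 130 nM GFP-eIF2α substrate, 0.2 mg/mL E. coli tRNA and 1 mM ATP; compounds (0.5% DMSO) reacted 3 h. Stopped with 20 mM EDTA plus 2 nM Tb-anti-peIF2α (pSer52), 60 min RT; 520/490 ratio converted to % inhibition, IC50 from four-parameter fit.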

For test [3], the system named is ATF4 in CCRF-CEM leukemia cells (PERK). The test is described as follows: CCRF-CEM TG ATF4 ELISA, phenotypic assay for cellular inhibition of PERK preactivated by thapsigargin. The test is classed as cell-based. The settings on record: Homo sapiens; Thapsigargin (1 μM) stimulated CCRF-CEM cells. How it is done: CCRF-CEM leukemia cells (catalog #CCL-116) were obtained from the American Type Culture Collection (ATTC, Manassas, VA). Briefly, cells were grown in RPMI-1640 medium supplemented with 10% heat-inactivated fetal bovine serum (Invitrogen, Carlsbad, CA) and 1% Penicillin/Streptomycin/L-Glutamine at 37° C., 5% CO2, and 95% humidity. Cells were expanded until reaching one million cells per mL at which time they were subcultured or harvested for assay use. One million five hundred thousand cells per well in 1 mL complete growth medium were dispensed into 12-well plates and incubated overnight. A serial dilution of test compound was added and cells were incubated at 37° C., 5% CO2, and 95% for three hours, then 1 μM thapsigargin was added and cells were incubated for an additional hour at 37° C., 5% CO2, and 95%. Cells were lysed then ATF4 levels were measured using an ELISA assay (Proteintech, Rosemont, IL). Absorbance was measured at 450 nm and 544 nM using a Synergy2 or equivalent reader (Biotek, Winooski VT). Data was analyzed using PRISM software (Graphpad, San Diego, CA) to calculate IC50 values.
A general note: An ELISA detects its analyte on a solid surface through an enzyme-linked reagent.

Sequence of PERK kinase (Q9NZJ5 other isoform, or with tags, fused parts or gaps): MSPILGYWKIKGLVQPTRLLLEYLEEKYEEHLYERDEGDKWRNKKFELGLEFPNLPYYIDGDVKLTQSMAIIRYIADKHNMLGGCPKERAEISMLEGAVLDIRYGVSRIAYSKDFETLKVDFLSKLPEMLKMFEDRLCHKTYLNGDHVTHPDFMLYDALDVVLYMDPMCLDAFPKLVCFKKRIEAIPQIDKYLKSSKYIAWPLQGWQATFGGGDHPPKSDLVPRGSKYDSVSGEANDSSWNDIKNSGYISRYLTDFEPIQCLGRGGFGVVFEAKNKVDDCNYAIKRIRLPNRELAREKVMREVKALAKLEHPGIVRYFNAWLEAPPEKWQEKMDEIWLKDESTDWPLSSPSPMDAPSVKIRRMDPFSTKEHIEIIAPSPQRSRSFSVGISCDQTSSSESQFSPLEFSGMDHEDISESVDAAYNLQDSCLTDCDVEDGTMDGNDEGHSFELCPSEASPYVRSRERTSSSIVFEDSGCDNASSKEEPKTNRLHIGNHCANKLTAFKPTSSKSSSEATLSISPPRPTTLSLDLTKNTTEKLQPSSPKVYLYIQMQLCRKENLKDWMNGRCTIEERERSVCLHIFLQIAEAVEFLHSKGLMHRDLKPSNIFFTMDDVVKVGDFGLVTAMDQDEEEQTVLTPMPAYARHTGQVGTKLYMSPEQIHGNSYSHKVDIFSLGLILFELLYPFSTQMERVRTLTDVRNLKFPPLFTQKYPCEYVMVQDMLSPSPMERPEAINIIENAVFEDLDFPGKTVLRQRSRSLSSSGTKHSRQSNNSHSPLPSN
Sequence of GCN2 kinase (Q9P2K8 whole entry): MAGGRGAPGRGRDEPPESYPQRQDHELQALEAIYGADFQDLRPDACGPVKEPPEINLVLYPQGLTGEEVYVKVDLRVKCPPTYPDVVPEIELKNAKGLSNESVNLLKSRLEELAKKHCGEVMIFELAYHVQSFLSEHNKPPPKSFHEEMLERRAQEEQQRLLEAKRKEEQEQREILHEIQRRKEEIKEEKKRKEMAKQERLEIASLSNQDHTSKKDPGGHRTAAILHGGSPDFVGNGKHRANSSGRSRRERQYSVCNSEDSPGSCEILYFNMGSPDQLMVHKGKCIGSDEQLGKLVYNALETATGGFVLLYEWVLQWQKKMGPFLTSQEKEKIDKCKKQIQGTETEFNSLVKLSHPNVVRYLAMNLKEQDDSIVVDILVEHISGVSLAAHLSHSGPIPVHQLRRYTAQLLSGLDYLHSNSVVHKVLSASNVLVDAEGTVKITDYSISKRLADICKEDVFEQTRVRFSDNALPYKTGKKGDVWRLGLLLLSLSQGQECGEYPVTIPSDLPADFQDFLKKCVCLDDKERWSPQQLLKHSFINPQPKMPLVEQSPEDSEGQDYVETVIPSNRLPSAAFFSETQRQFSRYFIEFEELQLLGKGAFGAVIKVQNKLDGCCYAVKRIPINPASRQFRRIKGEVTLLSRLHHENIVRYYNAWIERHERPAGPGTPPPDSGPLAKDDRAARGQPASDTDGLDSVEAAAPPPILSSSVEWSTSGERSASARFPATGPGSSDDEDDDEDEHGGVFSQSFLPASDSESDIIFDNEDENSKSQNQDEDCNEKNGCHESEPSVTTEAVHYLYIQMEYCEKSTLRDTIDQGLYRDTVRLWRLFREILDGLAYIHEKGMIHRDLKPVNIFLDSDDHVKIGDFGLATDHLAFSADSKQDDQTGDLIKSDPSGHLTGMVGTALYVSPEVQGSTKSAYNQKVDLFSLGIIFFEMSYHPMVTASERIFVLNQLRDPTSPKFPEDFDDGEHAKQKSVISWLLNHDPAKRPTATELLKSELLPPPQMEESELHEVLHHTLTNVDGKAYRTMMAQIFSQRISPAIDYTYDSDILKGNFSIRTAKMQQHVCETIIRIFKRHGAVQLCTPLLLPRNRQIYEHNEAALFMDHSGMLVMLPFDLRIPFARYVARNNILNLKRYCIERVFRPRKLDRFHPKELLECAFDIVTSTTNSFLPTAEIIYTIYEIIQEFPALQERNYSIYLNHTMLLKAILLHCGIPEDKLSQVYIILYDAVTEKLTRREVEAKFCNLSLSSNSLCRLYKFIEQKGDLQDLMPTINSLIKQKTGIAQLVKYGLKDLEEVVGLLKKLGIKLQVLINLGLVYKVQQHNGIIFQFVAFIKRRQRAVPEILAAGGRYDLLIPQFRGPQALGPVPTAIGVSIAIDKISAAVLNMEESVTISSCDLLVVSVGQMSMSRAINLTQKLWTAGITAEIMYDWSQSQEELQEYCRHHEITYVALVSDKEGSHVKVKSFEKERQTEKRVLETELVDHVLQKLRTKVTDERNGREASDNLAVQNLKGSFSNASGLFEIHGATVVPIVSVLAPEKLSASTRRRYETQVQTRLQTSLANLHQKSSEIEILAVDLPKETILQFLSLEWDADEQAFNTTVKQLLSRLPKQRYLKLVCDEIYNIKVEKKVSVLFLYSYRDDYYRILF

Turning to `CNc1cc2nc(C)c(-c3cccc(NS(=O)(=O)c4cc(Cl)cc(CO)c4Cl)c3F)cc2cn1` [Example 45], the IC50 is at most 100 nM with CCRF-CEM leukemia cells; at most 100 nM in test [1]; at most 100 nM in test [2]; at most 100 nM at PERK kinase; at most 100 nM on GCN2 kinase; 100 to 500 nM in test [3].
As to `CNc1ncc2cc(-c3cc(NS(=O)(=O)c4cc(Cl)cnc4OC)cc(F)c3F)c(C)nc2n1` [Example 48], the IC50 is 100 to 500 nM in the test on CCRF-CEM leukemia cells; at most 100 nM in test [1]; at most 100 nM in test [2]; 100 to 500 nM at PERK kinase; at most 100 nM at GCN2 kinase; 1000 to 10000 nM in test [3].
For `CNc1ncc2cc(-c3cccc(NS(=O)(=O)c4cc(Cl)cnc4NC)c3F)ccc2n1` [Example 50], the IC50 with CCRF-CEM leukemia cells is at most 100 nM; in test [1] it was at most 100 nM; in test [2] it was at most 100 nM; at PERK kinase it was at most 100 nM; against GCN2 kinase, at most 100 nM; in test [3] it was 1000 to 10000 nM.
Regarding `CNc1ncc2cc(-c3cccc(NS(=O)(=O)c4cc(Cl)cnc4OC)c3C)c(C)nc2n1` [Example 51], the IC50 in the test on CCRF-CEM leukemia cells is at most 100 nM; in test [1], at most 100 nM; in test [2], at most 100 nM; against PERK kinase it was 100 to 500 nM; against GCN2 kinase, at most 100 nM; in test [3], 1000 to 10000 nM.
As to `CNc1ncc2cc(-c3cc(NS(=O)(=O)c4cc(Cl)cnc4OC)ccc3C)c(C)nc2n1` [Example 53], the IC50 in the test with CCRF-CEM leukemia cells is at most 100 nM; in test [1] it was at most 100 nM; in test [2] it was at most 100 nM; at PERK kinase, 100 to 500 nM; against GCN2 kinase, at most 100 nM; in test [3] it was 1000 to 10000 nM.
Consider `CNc1cc2ncc(-c3cccc(NS(=O)(=O)c4cc(Cl)cnc4OC)c3F)cc2cn1` [Example 56], for which the IC50 in the test on CCRF-CEM leukemia cells was at most 100 nM; in test [1], at most 100 nM; in test [2], at most 100 nM; against PERK kinase, at most 100 nM; against GCN2 kinase, 100 to 500 nM; in test [3] it was 500 to 1000 nM.
For the compound `CNc1ncc2cc(-c3cc(F)cc(NS(=O)(=O)c4cc(Cl)cc(CO)c4Cl)c3)c(NC)nc2n1` [Example 57], the IC50 is at most 100 nM in the test with CCRF-CEM leukemia cells; at most 100 nM in test [1]; at most 100 nM in test [2]; at most 100 nM on PERK kinase; at most 100 nM at GCN2 kinase; 1000 to 10000 nM in test [3].
`COc1ncc(Cl)cc1S(=O)(=O)Nc1cccc(-c2cnc3nc(Nc4cnn(C)c4)ncc3c2)c1` [Example 59]: the IC50 is at most 100 nM in the test with CCRF-CEM leukemia cells; at most 100 nM in test [1]; at most 100 nM in test [2]; 100 to 500 nM at PERK kinase; at most 100 nM against GCN2 kinase; 1000 to 10000 nM in test [3].
As to `CNc1ncc2cc(-c3cccc(NS(=O)(=O)c4cc(Cl)cnc4OC)c3F)c(N)nc2n1` [Example 61], the IC50 is at most 100 nM in the test with CCRF-CEM leukemia cells; at most 100 nM in test [1]; at most 100 nM in test [2]; at most 100 nM against PERK kinase; at most 100 nM against GCN2 kinase; 100 to 500 nM in test [3].
As for `CNc1ncc2cc(-c3cccc(NS(=O)(=O)c4cc(Cl)cnc4OC)c3Cl)ccc2n1` [Example 62], the IC50 in the test on CCRF-CEM leukemia cells is at most 100 nM; in test [1], 100 to 500 nM; in test [2], at most 100 nM; against PERK kinase, at most 100 nM; on GCN2 kinase, at most 100 nM; in test [3], 1000 to 10000 nM.
On to `CNc1ncc2cc(-c3cc(F)cc(NS(=O)(=O)c4cc(Cl)cnc4OC)c3)c(N)nc2n1` [Example 63], for which the IC50 with CCRF-CEM leukemia cells is at most 100 nM; in test [1], at most 100 nM; in test [2] it was at most 100 nM; against PERK kinase, at most 100 nM; at GCN2 kinase, at most 100 nM; in test [3], 1000 to 10000 nM.
`CNc1ncc2cc(-c3cccc(NS(=O)(=O)c4cc(Cl)cnc4OC)c3)c(N)nc2n1` [Example 64]: the IC50 was at most 100 nM with CCRF-CEM leukemia cells; at most 100 nM in test [1]; at most 100 nM in test [2]; 100 to 500 nM on PERK kinase; at most 100 nM against GCN2 kinase; 1000 to 10000 nM in test [3].
Take `CNc1ncc2cc(-c3cccc(NS(=O)(=O)c4cc(Cl)cnc4OC)c3F)c(OC)nc2n1` [Example 66]: the IC50 with CCRF-CEM leukemia cells is at most 100 nM; in test [1] it was at most 100 nM; in test [2] it was at most 100 nM; against PERK kinase, at most 100 nM; at GCN2 kinase it was at most 100 nM; in test [3] it was 1000 to 10000 nM.
Turning to `CNc1ncc2cc(-c3cccc(NS(=O)(=O)c4cc(Cl)cnc4OC)c3Cl)c(C)nc2n1` [Example 67], the IC50 in the test on CCRF-CEM leukemia cells is at most 100 nM; in test [1] it was at most 100 nM; in test [2], at most 100 nM; at PERK kinase, at most 100 nM; against GCN2 kinase it was at most 100 nM; in test [3], 1000 to 10000 nM.
Take `CNc1ncc2cc(-c3cc(NS(=O)(=O)c4cc(Cl)cnc4OC)ccc3Cl)c(C)nc2n1` [Example 68]: the IC50 is at most 100 nM with CCRF-CEM leukemia cells; at most 100 nM in test [1]; at most 100 nM in test [2]; at most 100 nM at PERK kinase; at most 100 nM against GCN2 kinase; 1000 to 10000 nM in test [3].
`CNc1ncc2cc(-c3cccc(NS(=O)(=O)c4cc(Cl)cc(C(C)(C)O)c4Cl)c3F)c(NC)nc2n1` [Example 74]: the IC50 in the test with CCRF-CEM leukemia cells was at most 100 nM; in test [1], at most 100 nM; in test [2], at most 100 nM; on PERK kinase it was 100 to 500 nM; against GCN2 kinase, 100 to 500 nM; in test [3] it was 1000 to 10000 nM.
Turning to `COc1ncc(Cl)cc1S(=O)(=O)Nc1cccc(-c2cc3cnc(N)cc3nc2C)c1F` [Example 77], the IC50 in the test with CCRF-CEM leukemia cells is at most 100 nM; in test [1] it was at most 100 nM; in test [2], at most 100 nM; at PERK kinase, at most 100 nM; against GCN2 kinase it was at most 100 nM; in test [3], 100 to 500 nM.
With `CNc1cc2nc(C)c(-c3cccc(NS(=O)(=O)c4cc(Cl)cnc4NC)c3F)cc2cn1` [Example 78], the IC50 was at most 100 nM with CCRF-CEM leukemia cells; at most 100 nM in test [1]; at most 100 nM in test [2]; at most 100 nM at PERK kinase; at most 100 nM at GCN2 kinase; 500 to 1000 nM in test [3].

For the origin of these results see US11912668B2, “GCN2 and perk kinase inhibitors and methods of use thereof” (Deciphera Pharmaceuticals, LLC, priority 2020, dated 2024).
